Measurements reported in ChEMBL document CHEMBL3112480, “γ-Alkylidene-γ-lactones and isobutylpyrrol-2(5H)-ones analogues to rubrolides as inhibitors of biofilm formation by gram-positive and gram-negative bacteria” (Bioorg Med Chem Lett, 2014).
Values after ≈ are worked out from the molar mass of the structure shown.

Key:
[1] = tested on: Staphylococcus epidermidis; assay: Antibacterial activity against Staphylococcus epidermidis ATCC 35547 assessed as effect on planktonic growth at 0.17 ug/ml after 20 hrs relative to control; format: functional
[2] = tested on: Staphylococcus epidermidis; assay: Antibacterial activity against Staphylococcus epidermidis ATCC 35547 assessed as effect on planktonic growth at 1.37 ug/ml after 20 hrs relative to control; format: functional
Staphylococcus aureus [3] = assay: Antibacterial activity against Staphylococcus aureus ATCC 25923 assessed as effect on planktonic growth at 0.68 ug/ml after 20 hrs relative to control; format: functional
Staphylococcus aureus [4] = assay: Antibacterial activity against Staphylococcus aureus ATCC 25923 assessed as effect on planktonic growth at 5.5 ug/ml after 20 hrs relative to control; format: functional
Staphylococcus aureus [5] = assay: Antibacterial activity against Staphylococcus aureus ATCC 25923 assessed as effect on planktonic growth at 2.73 ug/ml after 20 hrs relative to control; format: functional
[6] = tested on: Staphylococcus epidermidis; assay: Antibacterial activity against Staphylococcus epidermidis ATCC 35547 assessed as effect on planktonic growth at 43.8 ug/ml after 20 hrs relative to control; format: functional
Staphylococcus aureus [7] = assay: Antibacterial activity against Staphylococcus aureus ATCC 25923 assessed as effect on planktonic growth at 0.34 ug/ml after 20 hrs relative to control; format: functional
Pseudomonas aeruginosa [8] = assay: Antibacterial activity against Pseudomonas aeruginosa ATCC 27853 assessed as inhibition of biofilm formation after 20 hrs by crystal-violet staining method; format: functional, organism-based
Streptococcus mutans [9] = assay: Antibacterial activity against Streptococcus mutans ATCC 25175 assessed as effect on planktonic growth at 5.5 ug/ml after 20 hrs relative to control; format: functional
[10] = tested on: Staphylococcus epidermidis; assay: Antibacterial activity against Staphylococcus epidermidis ATCC 35547 assessed as effect on planktonic growth at 87.5 ug/ml after 20 hrs relative to control; format: functional
[11] = tested on: Staphylococcus epidermidis; assay: Antibacterial activity against Staphylococcus epidermidis ATCC 35547 assessed as effect on planktonic growth at 5.5 ug/ml after 20 hrs relative to control; format: functional
Streptococcus mutans [12] = assay: Antibacterial activity against Streptococcus mutans ATCC 25175 assessed as effect on planktonic growth at 43.8 ug/ml after 20 hrs relative to control; format: functional
Pseudomonas aeruginosa [13] = assay: Antibacterial activity against Pseudomonas aeruginosa ATCC 27853 assessed as effect on planktonic growth at 1.37 ug/ml after 20 hrs relative to control; format: functional
[14] = tested on: Staphylococcus epidermidis; assay: Antibacterial activity against Staphylococcus epidermidis ATCC 35547 assessed as effect on planktonic growth at 0.34 ug/ml after 20 hrs relative to control; format: functional
Pseudomonas aeruginosa [15] = assay: Antibacterial activity against Pseudomonas aeruginosa ATCC 27853 assessed as effect on planktonic growth at 5.5 ug/ml after 20 hrs relative to control; format: functional
Staphylococcus aureus [16] = assay: Antibacterial activity against Staphylococcus aureus ATCC 25923 assessed as effect on planktonic growth at 87.5 ug/ml after 20 hrs relative to control; format: functional
Streptococcus mutans [17] = assay: Antibacterial activity against Streptococcus mutans ATCC 25175 assessed as effect on planktonic growth at 0.34 ug/ml after 20 hrs relative to control; format: functional
Pseudomonas aeruginosa [18] = assay: Antibacterial activity against Pseudomonas aeruginosa ATCC 27853 assessed as effect on planktonic growth at 0.68 ug/ml after 20 hrs relative to control; format: functional
Staphylococcus aureus [19] = assay: Antibacterial activity against Staphylococcus aureus ATCC 25923 assessed as effect on planktonic growth at 10.9 ug/ml after 20 hrs relative to control; format: functional
[20] = tested on: Staphylococcus epidermidis; assay: Antibacterial activity against Staphylococcus epidermidis ATCC 35547 assessed as effect on planktonic growth at 10.9 ug/ml after 20 hrs relative to control; format: functional
Pseudomonas aeruginosa [21] = assay: Antibacterial activity against Pseudomonas aeruginosa ATCC 27853 assessed as effect on planktonic growth at 43.8 ug/ml after 20 hrs relative to control; format: functional
[22] = tested on: Staphylococcus epidermidis; assay: Antibacterial activity against Staphylococcus epidermidis ATCC 35547 assessed as inhibition of biofilm formation after 20 hrs by crystal-violet staining method; format: functional, organism-based; settings: for IC50: ATCC 35547, 20 h
Pseudomonas aeruginosa [23] = assay: Antibacterial activity against Pseudomonas aeruginosa ATCC 27853 assessed as effect on planktonic growth at 0.34 ug/ml after 20 hrs relative to control; format: functional
Streptococcus mutans [24] = assay: Antibacterial activity against Streptococcus mutans ATCC 25175 assessed as effect on planktonic growth at 2.73 ug/ml after 20 hrs relative to control; format: functional
Streptococcus mutans [25] = assay: Antibacterial activity against Streptococcus mutans ATCC 25175 assessed as effect on planktonic growth at 87.5 ug/ml after 20 hrs relative to control; format: functional
Pseudomonas aeruginosa [26] = assay: Antibacterial activity against Pseudomonas aeruginosa ATCC 27853 assessed as effect on planktonic growth at 87.5 ug/ml after 20 hrs relative to control; format: functional
Streptococcus mutans [27] = assay: Antibacterial activity against Streptococcus mutans ATCC 25175 assessed as effect on planktonic growth at 21.9 ug/ml after 20 hrs relative to control; format: functional
Pseudomonas aeruginosa [28] = assay: Antibacterial activity against Pseudomonas aeruginosa ATCC 27853 assessed as effect on planktonic growth at 10.9 ug/ml after 20 hrs relative to control; format: functional
Pseudomonas aeruginosa [29] = assay: Antibacterial activity against Pseudomonas aeruginosa ATCC 27853 assessed as effect on planktonic growth at 0.17 ug/ml after 20 hrs relative to control; format: functional
Staphylococcus aureus [30] = assay: Antibacterial activity against Staphylococcus aureus ATCC 25923 assessed as effect on planktonic growth at 43.8 ug/ml after 20 hrs relative to control; format: functional
Staphylococcus aureus [31] = assay: Antibacterial activity against Staphylococcus aureus ATCC 25923 assessed as effect on planktonic growth at 0.17 ug/ml after 20 hrs relative to control; format: functional
[32] = tested on: Staphylococcus epidermidis; assay: Antibacterial activity against Staphylococcus epidermidis ATCC 35547 assessed as effect on planktonic growth at 2.73 ug/ml after 20 hrs relative to control; format: functional
[33] = tested on: Staphylococcus epidermidis; assay: Antibacterial activity against Staphylococcus epidermidis ATCC 35547 assessed as effect on planktonic growth at 21.9 ug/ml after 20 hrs relative to control; format: functional
Streptococcus mutans [34] = assay: Antibacterial activity against Streptococcus mutans ATCC 25175 assessed as effect on planktonic growth at 1.37 ug/ml after 20 hrs relative to control; format: functional
Pseudomonas aeruginosa [35] = assay: Antibacterial activity against Pseudomonas aeruginosa ATCC 27853 assessed as effect on planktonic growth at 21.9 ug/ml after 20 hrs relative to control; format: functional
Pseudomonas aeruginosa [36] = assay: Antibacterial activity against Pseudomonas aeruginosa ATCC 27853 assessed as effect on planktonic growth at 2.73 ug/ml after 20 hrs relative to control; format: functional
Staphylococcus aureus [37] = assay: Antibacterial activity against Staphylococcus aureus ATCC 25923 assessed as effect on planktonic growth at 21.9 ug/ml after 20 hrs relative to control; format: functional
Streptococcus mutans [38] = assay: Antibacterial activity against Streptococcus mutans ATCC 25175 assessed as effect on planktonic growth at 0.68 ug/ml after 20 hrs relative to control; format: functional
[39] = tested on: Staphylococcus epidermidis; assay: Antibacterial activity against Staphylococcus epidermidis ATCC 35547 assessed as effect on planktonic growth at 0.68 ug/ml after 20 hrs relative to control; format: functional
Streptococcus mutans [40] = assay: Antibacterial activity against Streptococcus mutans ATCC 25175 assessed as effect on planktonic growth at 0.17 ug/ml after 20 hrs relative to control; format: functional
Streptococcus mutans [41] = assay: Antibacterial activity against Streptococcus mutans ATCC 25175 assessed as effect on planktonic growth at 10.9 ug/ml after 20 hrs relative to control; format: functional
Staphylococcus aureus [42] = assay: Antibacterial activity against Staphylococcus aureus ATCC 25923 assessed as effect on planktonic growth at 1.37 ug/ml after 20 hrs relative to control; format: functional

**Q.** Which results are given for `COc1ccc(Cl)cc1C1=C(Br)C(=O)N(CC(C)C)/C1=C\c1ccccc1Br`?
**A.** Activity [1]: -2.5%; Activity [2]: -3.8%; Activity (Staphylococcus aureus [3]): 12.2%; Activity (Staphylococcus aureus [4]): 2.5%; Activity (Staphylococcus aureus [5]): 2.7%; Activity [6]: 13.5%; Activity (Staphylococcus aureus [7]): 17.2%; inhibition (Pseudomonas aeruginosa [8]): Dose-dependent effect; IC50 (Pseudomonas aeruginosa [8]; ATCC 27853, 20 h): 0.7 µg/mL (≈ 1.33 µM); Activity (Streptococcus mutans [9]): -1.6%; Activity [10]: 6.9%; Activity [11]: -5.7%; Activity (Streptococcus mutans [12]): 7.4%; Activity (Pseudomonas aeruginosa [13]): 0.4%; Activity [14]: -0.2%; Activity (Pseudomonas aeruginosa [15]): -5.5%; Activity (Staphylococcus aureus [16]): 48%; Activity (Streptococcus mutans [17]): 10.4%; Activity (Pseudomonas aeruginosa [18]): -0.1%; Activity (Staphylococcus aureus [19]): -1.2%; Activity [20]: -3.2%; Activity (Pseudomonas aeruginosa [21]): -6.6%; inhibition [22]: Dose-dependent effect; IC50 [22]: > 87.5 µg/mL; Activity (Pseudomonas aeruginosa [23]): -4%; Activity (Streptococcus mutans [24]): 9.6%; Activity (Streptococcus mutans [25]): 23.4%; Activity (Pseudomonas aeruginosa [26]): 10%; Activity (Streptococcus mutans [27]): 10.4%; Activity (Pseudomonas aeruginosa [28]): -11.5%; Activity (Pseudomonas aeruginosa [29]): -2.5%; Activity (Staphylococcus aureus [30]): 23.6%; Activity (Staphylococcus aureus [31]): 11.2%; Activity [32]: -6%; Activity [33]: 2.1%; Activity (Streptococcus mutans [34]): 8.5%; Activity (Pseudomonas aeruginosa [35]): -9.6%; Activity (Pseudomonas aeruginosa [36]): -3.1%; Activity (Staphylococcus aureus [37]): 7.5%; Activity (Streptococcus mutans [38]): 11%; Activity [39]: -5.2%; Activity (Streptococcus mutans [40]): 12.4%; Activity (Streptococcus mutans [41]): -3.3%; Activity (Staphylococcus aureus [42]): 12.4%

**Q.** What does the source list for `COc1ccc(Br)cc1C1=C(Br)C(=O)N(CC(C)C)C1(O)Cc1cccc(Cl)c1` (configuration not stated)?
**A.** Activity [1]: 17.5%; Activity [2]: 22.8%; Activity (Staphylococcus aureus [3]): 3.1%; Activity (Staphylococcus aureus [4]): 16.6%; Activity (Staphylococcus aureus [5]): 0.6%; Activity [6]: 35.9%; Activity (Staphylococcus aureus [7]): 6.1%; inhibition (Pseudomonas aeruginosa [8]): Dose-dependent effect; Activity (Streptococcus mutans [9]): 9.6%; Activity [10]: 38.2%; Activity [11]: 24.3%; Activity (Streptococcus mutans [12]): 16.9%; Activity (Pseudomonas aeruginosa [13]): -6.6%; Activity [14]: 34.1%; Activity (Pseudomonas aeruginosa [15]): -3.1%; Activity (Staphylococcus aureus [16]): 35.1%; Activity (Streptococcus mutans [17]): 5.5%; Activity (Pseudomonas aeruginosa [18]): -9%; Activity (Staphylococcus aureus [19]): 4.2%; Activity [20]: 25.8%; Activity (Pseudomonas aeruginosa [21]): 4.3%; inhibition [22]: Dose-dependent effect; IC50 [22]: > 87.5 µg/mL; Activity (Pseudomonas aeruginosa [23]): -5.4%; Activity (Streptococcus mutans [24]): 7%; Activity (Streptococcus mutans [25]): 26.1%; Activity (Pseudomonas aeruginosa [26]): 3.3%; Activity (Streptococcus mutans [27]): 15.4%; Activity (Pseudomonas aeruginosa [28]): 3.2%; Activity (Pseudomonas aeruginosa [29]): -7.3%; Activity (Staphylococcus aureus [30]): 30.3%; Activity (Staphylococcus aureus [31]): -4.6%; Activity [32]: 20.9%; Activity [33]: 30.2%; Activity (Streptococcus mutans [34]): 12.1%; Activity (Pseudomonas aeruginosa [35]): 1.4%; Activity (Pseudomonas aeruginosa [36]): 0.1%; Activity (Staphylococcus aureus [37]): 23.8%; Activity (Streptococcus mutans [38]): 10.3%; Activity [39]: 23.2%; Activity (Streptococcus mutans [40]): 1.1%; Activity (Streptococcus mutans [41]): 6.6%; Activity (Staphylococcus aureus [42]): -2%
